# Source: paper PMC9292235, “Pharmacokinetics and Metabolism of Ziritaxestat (GLPG1690) in Healthy Male Volunteers Following Intravenous and Oral Administration” (Clinical Pharmacology in Drug Development, 2021)
# Entries after “also recorded” stand apart in the source; their conditions may differ.
# How the values were obtained:
# [1] = Metabolite profiling and identification in plasma, urine and feces; format: in vivo, human; settings: for Mean Feces Region of Interest: components of one region share its value
# Protocol: (§1) Whole blood and plasma samples for total radioactivity and plasma sample concentrations of ziritaxestat were collected before dosing and at 0, 0.25, 0.5, 1, 1.5, 2, 3, 4, 6, 8, 10, 24, 48, 72, 96, 120, 144, 168, 192, and 216 hours after dosing. Plasma samples for metabolite identification and quantification were collected before dosing and at 1, 3, 6, 24, 48, 72, 96, and 144 hours after dosing. Urine and fecal samples for total radioactivity, metabolite identification, and quantification were collected before dosing through to 216 hours after dosing. Structural identification was attempted on any radioactive component that represented ≥10% of the circulating radioactivity in plasma or that accounted for >10% of the dose in ≥1 fecal and urine samples.
# [2] = Estimation of oral bioavailability fractions (fa, fg, fh); format: in vivo, human
# Source text: Contribution to clearance from nonhepatic routes was assumed to be minimal. fg was estimated assuming Fg=F/Fa/Fh .
# CYP3A4 [3] = settings: 0.1 to 30 μM incubated with human hepatocytes; background data in introduction, no reference given; cited from earlier work
# [4] = Part 1 absolute bioavailability: plasma PK after oral 600 mg ziritaxestat and 15-minute IV infusion of 100 μg 14C-ziritaxestat microtracer; format: in vivo, human; settings: for F AUCt (absolute bioavailability) / F AUC∞ (absolute bioavailability): oral 600 mg vs IV 100 μg 14C-ziritaxestat; for F AUCt (absolute bioavailability): dose-normalized AUCt; for F AUC∞ (absolute bioavailability): dose-normalized AUC∞
# Source text: Part 1 of the study was designed to assess the absolute bioavailability of ziritaxestat. An IV microtracer, a well‐established technique, was used.[21], [22] This design involved a 15‐minute infusion of a subtherapeutic 100‐μg IV ziritaxestat dose labeled with a microtracer (≤1000 nCi) of ^14C radioactivity, dosed at an anticipated time to reach maximum plasma concentration (tmax) of a preceding unlabeled therapeutic (600‐mg) oral dose (administered as three 200‐mg film‐coated tablets). The low‐dose IV formulation means that nonclinical local tolerability and IV toxicology studies can generally be avoided,[21], [22] which can be preferable when developing a single, fit‐for‐purpose IV formulation. Administering the IV microdose at tmax of the unlabeled therapeutic (600‐mg) oral dose of ziritaxestat ensured that the PK of the microdose remained representative of the therapeutic dose.
# Given the low (microgram) levels of ziritaxestat expected in plasma, liquid chromatography–accelerated mass spectrometry (LC‐AMS) was used to quantify levels of ^14C‐ziritaxestat, whereas accelerated mass spectrometry (AMS) was used to quantify total radioactivity following the IV dose, achieving a lower limit of quantification (LLOQ) of 0.110 ng eq/mL and 0.0069 ng eq/mL, respectively. Concentrations of unlabeled parent in plasma were measured using liquid chromatography with tandem mass spectrometry (LC‐MS/MS), with an LLOQ of 1.00 ng/mL.
# Subjects were admitted to the clinic on day –1 (the evening before dosing) and remained onsite until 72 hours after dosing. On the morning of day 1, 30 minutes after the start of a standard breakfast, subjects received a single oral dose of 600‐mg ziritaxestat, followed 3.25 hours later by a 15‐minute IV infusion of 100 μg of ^14C‐ziritaxestat. Plasma samples for ziritaxestat concentrations were collected before dosing and at 0.25, 0.5, 1, 1.5, 2, 3, 3.25, 4, 5, 6, 8, 10, 12, 24, 48, and 72 hours after the oral dose. In addition, plasma samples for ^14C‐ziritaxestat, total radioactivity, and metabolite profiling were collected at 3.25, 3.33, 3.5, 3.75, 4, 4.25, 4.75, 5.25, 6, 7, 8, 10, 12, 24, 48, and 72 hours after the oral dose.
# (§2) Concentrations of ziritaxestat in human lithium heparin plasma samples were determined for both study parts by using an LC‐MS/MS method validated according to the requirements of the US Food and Drug Administration's Guidance for Industry and the European Medicines Agency's guidance on bioanalytical methods. The method involved isolating ziritaxestat and ziritaxestat‐d8 (internal standard) from 20 μL of human lithium heparin plasma by solid‐phase extraction performed on a CUBCX1 100‐mg 1‐mL cartridge (Screening Devices, Amersfoort, Netherlands). The extract sample was then evaporated to dryness under a stream of nitrogen at +50°C. The residue was reconstituted with 0.3 mL of a mixture of 25% acetonitrile in purified water containing 0.01% of ammonium hydroxide. Ten microliters of the clear supernatant were injected into the high‐performance liquid chromatography system (Shimadzu, Kyoto, Japan), operating in isocratic elution mode. Chromatographic separation was performed on an XBridge C18 column (100 × 4.6 mm, 3.5 μm; Waters Corp., Milford, Massachusetts). The aqueous mobile phase consisted of a mixture of 46.75% acetonitrile in purified water containing 0.02% of ammonium hydroxide. An API 4000 LC‐MS/MS system (SCIEX, Toronto, Canada) equipped with a TurboIonSpray probe operating in multiple‐reaction monitoring mode in positive mode was used for quantification. The precursor‐to‐product ion pairs at the mass‐to‐charge ratio were 589 to 256 and 597 to 264 for ziritaxestat and its internal standard, respectively.
# Total radioactivity plasma concentrations for part 1 were determined using AMS analysis on a 1‐MV multielement accelerated mass spectrometer, model 4110 Bo (High Voltage Engineering Europa, Amersfoort, the Netherlands). […]
# CYP3A4 [5] = settings: human recombinant CYP, background data in introduction, no reference given, cited from earlier work
# [6] = Safety assessments (AEs, laboratory tests, vital signs, ECG); format: in vivo, human; settings: parts 1 and 2
# Protocol: Safety assessments included adverse events (AEs), clinical laboratory tests (clinical chemistry, hematology, urinalysis), vital signs, 12‐lead electrocardiograms (ECGs), and physical examinations. AEs were recorded from the first dose until study discharge, and at the follow‐up call. Any adverse experiences recorded between the time of informed consent and the first dose were recorded with the medical history. AEs and medications were coded using the Medical Dictionary for Regulatory Activities version 21.1.
# CYP1A2 = settings: 0.1 to 30 μM incubated with human hepatocytes; background data in introduction, no reference given; cited from earlier work
# [7] = Part 2: plasma and whole blood PK after a single oral 600-mg dose of 14C-ziritaxestat; format: in vivo, human; settings: ziritaxestat in plasma, single oral 600 mg 14C-ziritaxestat
# Source text: Part 2 of the study assessed the mass balance, routes of elimination, and metabolite profile of ziritaxestat following a single, oral 600‐mg dose (administered as two 300‐mg active pharmaceutical ingredients‐in‐capsule) of ^14C‐ziritaxestat.
# Subjects were admitted on the evening before dosing (day –1 of part 2), allowing a minimum 7‐day washout in oral drug administration between parts 1 and 2. On the morning of day 1, subjects received a single oral dose of ^14C‐ziritaxestat, equivalent to 600 mg of ziritaxestat. […] Subjects stayed in the clinical study center no longer than day 10 (216 hours after dosing).
# as §1
# Total radioactivity was measured via liquid scintillation counting, achieving an LLOQ of 306 ng eq/mL (plasma), 216 ng eq/mL (whole blood), 17 ng eq/g (urine), and 161 ng eq/g (feces). Concentrations of parent in plasma were measured using LC‐MS/MS, with an LLOQ of 1.00 ng/mL.
# as §2
# PK analysis was performed using standard noncompartmental methods (Phoenix WinNonlin version 9.4; Pharsight, Certara, Princeton, New Jersey). […] In part 2, the following mass balance parameters were determined: cumulative amount of total radioactivity excreted in urine up to t, cumulative amount of total radioactivity excreted in feces up to t, amount of total radioactivity excreted in urine as a percentage of administered radioactivity, and amount of total radioactivity excreted in feces as a percentage of administered radioactivity. AUC was calculated by the linear up‐logarithmic down‐trapezoid rule, CL was calculated as dose/AUC, Vd(area) was calculated as CL/λz, and F was calculated as dose‐normalized ziritaxestat oral AUC/^14C‐ziritaxestat IV AUC.
# CYP2C8 = settings: background data in introduction, no reference given, cited from earlier work
# CYP3A4/5 = settings: human liver microsomes and probe substrates; weak inhibition; background data in introduction, no reference given; read-out: half maximal inhibitory concentration; cited from earlier work
# [8] = feces, single oral 600 mg 14C-ziritaxestat
# [9] = human, ziritaxestat in plasma, oral 600 mg, n = 6, mean (SD)
# [10] = mean (SD), listed as ziritaxestat
compound,measurement,setting,value
CCc1nc2c(C)cc(N3CCN(CC(=O)NCC(=O)O)CC3)cn2c1N(C)c1nc(-c2ccc(F)cc2)c(C#N)s1 [M590],Mean Feces Region of Interest,[1]; [8],25.3%
CCc1nc2c(C)cc(N3CCN(CC(=O)O)CC3)cn2c1N(C)c1nc(-c2ccc(F)cc2)c(C#N)s1 [M533],Mean Feces Region of Interest,[1]; [8],25.3%
CCc1nc2c(C)cc(N3CCN(CC(=O)N4CC(O)C4)CC3)cn2c1N(C)c1nc(-c2ccc(F)cc2)c(C#N)s1 [Ziritaxestat],fg (fraction of drug surviving gut metabolism),[2]; Fg = F/Fa/Fh,69%
same,fh (fraction of drug surviving hepatic elimination),"[2]; Fh = 1 - Eh, Eh = ClIV/Qh, Qh 1450 mL/min",91%
same,Hepatic extraction ratio (first-pass loss),"[2]; human, in vivo",9%
same,frem (fraction of drug remaining to be eliminated),"[2]; human, in vivo",14%
same,CYP3A4 messenger RNA expression (induction potential),CYP3A4 [3],Increases in messenger RNA expression
same,AUC(0-inf),[4]; [9],40000 ng·h/mL
same,AUC(0-t),[4]; [9],40000 ng·h/mL
same,Cmax,[4]; [9],8400 ng/mL
same,half-life,[4]; [9],7 h
same,Tmax,"[4]; human, ziritaxestat in plasma, oral 600 mg, n = 6, median (range)",3.25 h
same,F AUCt (absolute bioavailability),[4]; mean (SD),54.4 (5.2) %
same,F AUCt (absolute bioavailability),[4]; [10],54%
same,F AUC∞ (absolute bioavailability),[4]; mean (SD),51.1 (4.8) %
same,F AUC∞ (absolute bioavailability),[4]; [10],51%
same,CL/F,"[4]; ziritaxestat in plasma, oral 600 mg, n = 6, mean (SD)",16.3 (4.6) L/h
same,Parent as share of total radioactivity (drug-related material) recovered in feces,"[1]; feces, oral 600 mg 14C-ziritaxestat",17.6%
same,Mean Feces Region of Interest,[1]; [8],17.6%
same,Share of circulating radioactivity in plasma,"[1]; plasma, metabolite profile / mass spectrometry analysis, oral 600 mg 14C-ziritaxestat",76%
same,Mean Plasma Region of Interest,"[1]; plasma, single oral 600 mg 14C-ziritaxestat",76.2
same,Enzyme primarily responsible for metabolism,CYP3A4 [5],primarily metabolized by CYP3A4
same,Contribution to metabolism from other phase 1 enzymes (maximum),CYP3A4 [5]; enzymes other than CYP3A4,≤ 2.1%
same,"Effects on laboratory, vital signs, or ECG parameters",[6],no clinically meaningful effects
same,Intensity of TEAEs,[6],mild
same,Relation of TEAEs to treatment as assessed by the investigator,[6],not considered to be related to the study drug; also recorded: not treatment related
same,Serious AEs or AEs leading to discontinuation or interruption of dosing,[6]; healthy male subjects,no serious AEs or AEs leading to discontinuation or interruption of dosing
same,Number of treatment-emergent AEs (TEAEs),[6]; reported in 5 subjects,7
same,CYP1A2 messenger RNA expression (induction potential),CYP1A2,Increases in messenger RNA expression
same,AUC(0-inf),"[7]; human, n = 5, mean (SD)",50500 ng·h/mL
same,half-life,"[7]; human, n = 5, mean (SD)",10.6 h
same,AUC(0-t),"[7]; human, n = 6, mean (SD)",49100 ng·h/mL
same,Cmax,"[7]; human, n = 6, mean (SD)",10700 ng/mL
same,AUC,"[7]; human, n = 6, mean (SD), read-out: AUC24",47900 ng·h/mL
same,Tmax,"[7]; human, n = 6, median (range)",1.75 h
same,CL/F,"[7]; n = 5, mean (SD)",13.2 (4.6) [n = 5] ^c L/h
same,half maximal inhibitory concentration fold shift,"CYP2C8; CYP2C8-mediated metabolism, preincubation with ziritaxestat in the absence and presence of NADP, time-dependent inhibition",2.49
same,IC50,"CYP2C8; human liver microsomes and probe substrates, weak inhibition, read-out: half maximal inhibitory concentration",2100 nM
same,IC50,CYP3A4/5,3700 nM
